Assay results from article PMC12102759 (Protein Science : A Publication of the Protein Society, 2025).
Where two headings read alike, the source gives them in different places.

Test system: PABPC1 PABC
Type: binding, human
Settings: DMS-BM library, bait PABPC1 PABC, row aa = residue at this position; for DMS-derived PSSM value, position K7 / DMS-derived PSSM value, position K9 / DMS-derived PSSM value (averaged), position K7: K = wild type; for DMS-derived PSSM value, position A8 / DMS-derived PSSM value, position A6: A = wild type
[1] = prey ATXN2, TLNPNAKEFNPRSF(averaged) over the two overlapping peptides, P = wild type
[2] = prey ATXN2, TLNPNAKEFNPRSF(averaged) over the two overlapping peptides, E = wild type
[3] = prey ATXN2, peptide KSTLNPNAKEFNPRSF, P = wild type
[4] = prey ATXN2, peptide TLNPNAKEFNPRSFSQ
[5] = prey ATXN2, peptide KSTLNPNAKEFNPRSF
[6] = prey ATXN2, TLNPNAKEFNPRSF(averaged) over the two overlapping peptides, F = wild type
[7] = prey ATXN2, peptide TLNPNAKEFNPRSFSQ, N = wild type
[8] = prey ATXN2, peptide TLNPNAKEFNPRSFSQ, L = wild type
[9] = prey ATXN2, peptide KSTLNPNAKEFNPRSF, F = wild type
[10] = prey ATXN2, peptide TLNPNAKEFNPRSFSQ, S = wild type
[11] = prey ATXN2, TLNPNAKEFNPRSF(averaged) over the two overlapping peptides
[12] = prey ATXN2, peptide TLNPNAKEFNPRSFSQ, T = wild type
[13] = prey ATXN2, TLNPNAKEFNPRSF(averaged) over the two overlapping peptides, N = wild type
[14] = prey ATXN2, peptide KSTLNPNAKEFNPRSF, S = wild type
[15] = prey ATXN2, peptide TLNPNAKEFNPRSFSQ, E = wild type

TLNPNAKEFNPRSF(averaged) P4Y (TLNYNAKEFNPRSF)
DMS-derived PSSM value (averaged), position P4 [1]: 0

TLNPNAKEFNPRSF(averaged) E8R (TLNPNAKRFNPRSF)
DMS-derived PSSM value (averaged), position E8 [2]: 0

KSTLNPNAKEFNPRSF P6I (KSTLNINAKEFNPRSF)
DMS-derived PSSM value, position P6 [3]: 0.3229

TLNPNAKEFNPRSFSQ K7Y (TLNPNAYEFNPRSFSQ)
DMS-derived PSSM value, position K7 [4]: 0.472

KSTLNPNAKEFNPRSF A8R (KSTLNPNRKEFNPRSF)
DMS-derived PSSM value, position A8 [5]: 0

TLNPNAKEFNPRSF(averaged) F9E (TLNPNAKEENPRSF)
DMS-derived PSSM value (averaged), position F9 [6]: 0.02703

TLNPNAKEFNPRSFSQ N10Q (TLNPNAKEFQPRSFSQ)
DMS-derived PSSM value, position N10 [7]: 0.09458

TLNPNAKEFNPRSFSQ P4I (TLNINAKEFNPRSFSQ)
DMS-derived PSSM value, position P4 (prey ATXN2, peptide TLNPNAKEFNPRSFSQ, P = wild type): 0.2422

TLNPNAKEFNPRSFSQ L2G (TGNPNAKEFNPRSFSQ)
DMS-derived PSSM value, position L2 [8]: 0

KSTLNPNAKEFNPRSF K9N (KSTLNPNANEFNPRSF)
DMS-derived PSSM value, position K9 [5]: 0.1194

TLNPNAKEFNPRSFSQ N3H (TLHPNAKEFNPRSFSQ)
DMS-derived PSSM value, position N3 [7]: 0

TLNPNAKEFNPRSFSQ L2S (TSNPNAKEFNPRSFSQ)
DMS-derived PSSM value, position L2 [8]: 0

KSTLNPNAKEFNPRSF F16M (KSTLNPNAKEFNPRSM)
DMS-derived PSSM value, position F16 [9]: 0.02916

TLNPNAKEFNPRSFSQ S13Q (TLNPNAKEFNPRQFSQ)
DMS-derived PSSM value, position S13 [10]: 0.0185

TLNPNAKEFNPRSF(averaged) P11R (TLNPNAKEFNRRSF)
DMS-derived PSSM value (averaged), position P11 [1]: 0.003178

TLNPNAKEFNPRSF(averaged) K7V (TLNPNAVEFNPRSF)
DMS-derived PSSM value (averaged), position K7 [11]: 0.003972

TLNPNAKEFNPRSF(averaged) F9L (TLNPNAKELNPRSF)
DMS-derived PSSM value (averaged), position F9 [6]: 0

TLNPNAKEFNPRSFSQ T1H (HLNPNAKEFNPRSFSQ)
DMS-derived PSSM value, position T1 [12]: 0.01756

TLNPNAKEFNPRSFSQ K7M (TLNPNAMEFNPRSFSQ)
DMS-derived PSSM value, position K7 [4]: 0.0004181

TLNPNAKEFNPRSF(averaged) N10W (TLNPNAKEFWPRSF)
DMS-derived PSSM value (averaged), position N10 [13]: 0.1093

TLNPNAKEFNPRSFSQ A6P (TLNPNPKEFNPRSFSQ)
DMS-derived PSSM value, position A6 [4]: 0

KSTLNPNAKEFNPRSF A8W (KSTLNPNWKEFNPRSF)
DMS-derived PSSM value, position A8 [5]: 0

KSTLNPNAKEFNPRSF K9Y (KSTLNPNAYEFNPRSF)
DMS-derived PSSM value, position K9 [5]: 0.02328

KSTLNPNAKEFNPRSF S15M (KSTLNPNAKEFNPRMF)
DMS-derived PSSM value, position S15 [14]: 0.01897

TLNPNAKEFNPRSFSQ F9R (TLNPNAKERNPRSFSQ)
DMS-derived PSSM value, position F9 (prey ATXN2, peptide TLNPNAKEFNPRSFSQ, F = wild type): 0

TLNPNAKEFNPRSFSQ S15Y (TLNPNAKEFNPRSFYQ)
DMS-derived PSSM value, position S15 [10]: 0.004758

TLNPNAKEFNPRSF(averaged) S13I (TLNPNAKEFNPRIF)
DMS-derived PSSM value (averaged), position S13 (prey ATXN2, TLNPNAKEFNPRSF(averaged) over the two overlapping peptides, S = wild type): 0.01901

TLNPNAKEFNPRSF(averaged) L2W (TWNPNAKEFNPRSF)
DMS-derived PSSM value (averaged), position L2 (prey ATXN2, TLNPNAKEFNPRSF(averaged) over the two overlapping peptides, L = wild type): 0.07274

KSTLNPNAKEFNPRSF F16D (KSTLNPNAKEFNPRSD)
DMS-derived PSSM value, position F16 [9]: 0.02019

KSTLNPNAKEFNPRSF F16L (KSTLNPNAKEFNPRSL)
DMS-derived PSSM value, position F16 [9]: 0.2967

TLNPNAKEFNPRSFSQ L2H (THNPNAKEFNPRSFSQ)
DMS-derived PSSM value, position L2 [8]: 0

TLNPNAKEFNPRSF(averaged) P4A (TLNANAKEFNPRSF)
DMS-derived PSSM value (averaged), position P4 [1]: 0.01026

KSTLNPNAKEFNPRSF S2R (KRTLNPNAKEFNPRSF)
DMS-derived PSSM value, position S2 [14]: 0.0005784

TLNPNAKEFNPRSFSQ A6H (TLNPNHKEFNPRSFSQ)
DMS-derived PSSM value, position A6 [4]: 0

TLNPNAKEFNPRSFSQ A6Q (TLNPNQKEFNPRSFSQ)
DMS-derived PSSM value, position A6 [4]: 0

KSTLNPNAKEFNPRSF P6S (KSTLNSNAKEFNPRSF)
DMS-derived PSSM value, position P6 [3]: 0.01358

TLNPNAKEFNPRSF(averaged) F14P (TLNPNAKEFNPRSP)
DMS-derived PSSM value (averaged), position F14 [6]: 0.03538

TLNPNAKEFNPRSF(averaged) F9I (TLNPNAKEINPRSF)
DMS-derived PSSM value (averaged), position F9 [6]: 0

TLNPNAKEFNPRSF(averaged) N3H (TLHPNAKEFNPRSF)
DMS-derived PSSM value (averaged), position N3 [13]: 0

TLNPNAKEFNPRSF(averaged) K7I (TLNPNAIEFNPRSF)
DMS-derived PSSM value (averaged), position K7 [11]: 0.2038

TLNPNAKEFNPRSF(averaged) N10G (TLNPNAKEFGPRSF)
DMS-derived PSSM value (averaged), position N10 [13]: 0.02059

KSTLNPNAKEFNPRSF R14I (KSTLNPNAKEFNPISF)
DMS-derived PSSM value, position R14 (prey ATXN2, peptide KSTLNPNAKEFNPRSF, R = wild type): 0.04837

TLNPNAKEFNPRSF(averaged) N10R (TLNPNAKEFRPRSF)
DMS-derived PSSM value (averaged), position N10 [13]: 0.02307

TLNPNAKEFNPRSFSQ E8L (TLNPNAKLFNPRSFSQ)
DMS-derived PSSM value, position E8 [15]: 0

TLNPNAKEFNPRSFSQ N10P (TLNPNAKEFPPRSFSQ)
DMS-derived PSSM value, position N10 [7]: 0.06147

TLNPNAKEFNPRSF(averaged) F9S (TLNPNAKESNPRSF)
DMS-derived PSSM value (averaged), position F9 [6]: 0

KSTLNPNAKEFNPRSF F16S (KSTLNPNAKEFNPRSS)
DMS-derived PSSM value, position F16 [9]: 0.02635

KSTLNPNAKEFNPRSF N5I (KSTLIPNAKEFNPRSF)
DMS-derived PSSM value, position N5 (prey ATXN2, peptide KSTLNPNAKEFNPRSF, N = wild type): 0

KSTLNPNAKEFNPRSF S2K (KKTLNPNAKEFNPRSF)
DMS-derived PSSM value, position S2 [14]: 0

TLNPNAKEFNPRSF(averaged) K7Q (TLNPNAQEFNPRSF)
DMS-derived PSSM value (averaged), position K7 [11]: 0.01764

TLNPNAKEFNPRSFSQ N10S (TLNPNAKEFSPRSFSQ)
DMS-derived PSSM value, position N10 [7]: 0.03126

KSTLNPNAKEFNPRSF S15G (KSTLNPNAKEFNPRGF)
DMS-derived PSSM value, position S15 [14]: 0

KSTLNPNAKEFNPRSF E10G (KSTLNPNAKGFNPRSF)
DMS-derived PSSM value, position E10 (prey ATXN2, peptide KSTLNPNAKEFNPRSF, E = wild type): 0

TLNPNAKEFNPRSF(averaged) T1L (LLNPNAKEFNPRSF)
DMS-derived PSSM value (averaged), position T1 (prey ATXN2, TLNPNAKEFNPRSF(averaged) over the two overlapping peptides, T = wild type): 0.06577

TLNPNAKEFNPRSFSQ S15E (TLNPNAKEFNPRSFEQ)
DMS-derived PSSM value, position S15 [10]: 0.1009

TLNPNAKEFNPRSF(averaged) E8Q (TLNPNAKQFNPRSF)
DMS-derived PSSM value (averaged), position E8 [2]: 0.02477

KSTLNPNAKEFNPRSF A8Q (KSTLNPNQKEFNPRSF)
DMS-derived PSSM value, position A8 [5]: 0

KSTLNPNAKEFNPRSF L4G (KSTGNPNAKEFNPRSF)
DMS-derived PSSM value, position L4 (prey ATXN2, peptide KSTLNPNAKEFNPRSF, L = wild type): 0

TLNPNAKEFNPRSFSQ A6G (TLNPNGKEFNPRSFSQ)
DMS-derived PSSM value, position A6 [4]: 0

TLNPNAKEFNPRSFSQ N10H (TLNPNAKEFHPRSFSQ)
DMS-derived PSSM value, position N10 [7]: 0.0229

TLNPNAKEFNPRSF(averaged) N5G (TLNPGAKEFNPRSF)
DMS-derived PSSM value (averaged), position N5 [13]: 0.006922

TLNPNAKEFNPRSF(averaged) F9K (TLNPNAKEKNPRSF)
DMS-derived PSSM value (averaged), position F9 [6]: 0.003046

TLNPNAKEFNPRSFSQ E8G (TLNPNAKGFNPRSFSQ)
DMS-derived PSSM value, position E8 [15]: 0

TLNPNAKEFNPRSFSQ N5A (TLNPAAKEFNPRSFSQ)
DMS-derived PSSM value, position N5 [7]: 0.004479

TLNPNAKEFNPRSFSQ T1N (NLNPNAKEFNPRSFSQ)
DMS-derived PSSM value, position T1 [12]: 0.02571

TLNPNAKEFNPRSFSQ N5L (TLNPLAKEFNPRSFSQ)
DMS-derived PSSM value, position N5 [7]: 0.06159

TLNPNAKEFNPRSFSQ S13R (TLNPNAKEFNPRRFSQ)
DMS-derived PSSM value, position S13 [10]: 0.001962

TLNPNAKEFNPRSF(averaged) P4V (TLNVNAKEFNPRSF)
DMS-derived PSSM value (averaged), position P4 [1]: 0.4012

KSTLNPNAKEFNPRSF K9V (KSTLNPNAVEFNPRSF)
DMS-derived PSSM value, position K9 [5]: 0.0001287
